The subject of assay [1] is PC-12. In words: Induction of neuronal differentiation in rat PC-12 cells at 10 uM incubated for 48 hrs by microscopic analysis. It counts as functional, cell-based.
Assay [2] relates to PC-12. As to the kind of experiment: Induction of neuronal differentiation in rat PC-12 cells assessed as increase in neurite bearing cells incubated for 48 hrs in presence of NGF by microscopic analysis. The format is functional, cell-based. The conditions noted are these: dose 1-10 µM.
Assay [3] is described as follows: Induction of neuronal differentiation in rat PC-12 cells assessed as neurite growth at 10 uM incubated for 48 hrs in presence of NGF by microscopic analysis (reference value: 8.39 +/- 0.03 %). It counts as functional.
The nature of assay [4]: Induction of neuronal differentiation in rat PC-12 cells assessed as neurite growth by measuring fold change at 10 uM incubated for 48 hrs in presence of NGF by microscopic analysis relative to NGF. It counts as functional.
Assay [5] has as its system BV-2. As to the kind of experiment: Anti-inflammatory activity against mouse BV-2 cells assessed as inhibition of LPS-induced NO production pretreated for 3 hrs followed by LPS addition measured after 24 hrs by Griess reagent based assay. The format is functional, cell-based.
The subject of assay [6] is PC-12. In words: Neuroprotective activity against H2O2-induced neurotoxicity in rat PC-12 cells assessed as increase in HO-1 level at 2.5 to 40 uM by Western blot analysis. The format is functional, cell-based. The settings on record: dose 2.5-40 µM.
Assay [7] concerns PC-12. In words: Neuroprotective activity against H2O2-induced neurotoxicity in rat PC-12 cells assessed as increase in catalase level at 2.5 to 40 uM by Western blot analysis. The format is functional, cell-based. The settings on record: dose 2.5-40 µM.
For assay [8], the system named is PC-12. In words: Neuroprotective activity against H2O2-induced neurotoxicity in rat PC-12 cells at 5 to 40 uM incubated for 24 hrs by MTT assay. The settings on record: dose 5-40 µM. The format is functional, cell-based.
For assay [9], the system named is PC-12. As to the kind of experiment: Neuroprotective activity against 6-OHDA-induced neurotoxicity in rat PC-12 cells at 5 to 40 uM incubated for 24 hrs by MTT assay. The conditions noted are these: dose 5-40 µM. It counts as functional, cell-based.
The subject of assay [10] is BV-2. As to the kind of experiment: Anti-inflammatory activity against mouse BV-2 cells assessed as reduction in LPS-induced iNOS expression pretreated for 3 hrs followed by LPS addition measured after 24 hrs by Western blot analysis. It counts as functional, cell-based. The conditions noted are these: dose 3-30 µM, time 27.0 hrs.
Assay [11] deals with BV-2. As to the kind of experiment: Anti-inflammatory activity against mouse BV-2 cells assessed as reduction in LPS-induced COX-2 expression pretreated for 3 hrs followed by LPS addition measured after 24 hrs by Western blot analysis. The format is functional, cell-based. The conditions noted are these: dose 3-30 µM, time 27.0 hrs.
The test system of assay [12] is BV-2. As to the kind of experiment: Anti-inflammatory activity against mouse BV-2 cells assessed as inhibition of LPS-induced p-JNK activation at 30 uM pretreated for 3 hrs followed by LPS addition measured after 24 hrs. The format is functional, cell-based. The settings on record: time 27.0 hrs.
The test system of assay [13] is BV-2. As to the kind of experiment: Anti-inflammatory activity against mouse BV-2 cells assessed as reduction in LPS-induced COX-2 expression pretreated for 3 hrs followed by LPS addition measured after 24 hrs by immunofluorescence based analysis. The format is functional, cell-based. The conditions noted are these: dose 3-30 µM.
The subject of assay [14] is BV-2. As to the kind of experiment: Anti-inflammatory activity against mouse BV-2 cells assessed as inhibition of LPS-induced JNK activation at 30 uM pretreated for 3 hrs followed by LPS addition measured after 24 hrs. The format is functional, cell-based. The conditions noted are these: time 27.0 hrs.
Assay [15] deals with BV-2. As to the kind of experiment: Anti-inflammatory activity against mouse BV-2 cells assessed as inhibition of LPS-induced NF-kappaB p65 nuclear entry at 3 to 30 uM pretreated for 3 hrs followed by LPS addition measured after 24 hrs by Western blot analysis. The format is functional, cell-based. The settings on record: dose 3-30 µM, time 27.0 hrs.
Assay [16] relates to PC-12. In words: Neuroprotective activity against H2O2-induced neurotoxicity in rat PC-12 cells incubated for 24 hrs by MTT assay. It counts as functional, cell-based. The settings on record: dose 5-40 µM.
Assay [17] has as its system Caenorhabditis elegans. In words: Antialzheimer activity in transgenic Caenorhabditis elegans CL4176 expressing human amyloid-beta peptide assessed as decrease in paralysis rate at 25 uM incubated for 14 hrs. It counts as functional, organism-based.
Assay [18] has as its system Caenorhabditis elegans. As to the kind of experiment: Antioxidant activity in Caenorhabditis elegans CL4176 expressing human amyloid-beta peptide assessed as decrease in ROS level at 50 uM incubated for 7 days by H2DCF-DA probe based analysis relative to control. The settings on record: time 7 day. On the set-up: scale not given: the % may be the effect or the level left. It counts as functional.

Assay [19] deals with BV-2. As to the kind of experiment: Anti-inflammatory activity against mouse BV-2 cells assessed as inhibition of LPS-induced NF-kappaB p65 phosphorylation pretreated for 3 hrs followed by LPS addition measured after 24 hrs by Western blot analysis. It counts as functional, cell-based. The settings on record: dose 3-30 µM, time 27.0 hrs.
The test system of assay [20] is Caenorhabditis elegans. As to the kind of experiment: Antialzheimer activity in transgenic Caenorhabditis elegans CL4176 expressing human amyloid-beta peptide assessed as decrease in paralysis rate at 12.5 uM incubated for 14 hrs relative to control. It counts as functional. Also on record: scale not given: the % may be the effect or the level left.

The source made the active and inactive calls. The calls are words filed in the database; no cut-off is given here.

In the case of `COC(C)(C)C/C=C/C(C)=C/CC[C@@]1(C)C=Cc2c(O)cc(C)cc2O1`, in the assay with PC-12 [1], the outcome was Active. Moreover, the Activity result in the assay on PC-12 [2] was “Dose-dependent-effect”; in assay [3], 22.93%. In assay [4], the “fold change (FC)” value is around 3.

`CC(C)=CCC/C(C)=C/CC/C(C)=C/Cc1c(O)cc(C)cc1O` [GRIFOLIN]: in the assay on BV-2 [5], the IC50 turned out to be 18.9 µM. Moreover, the outcome in the assay on PC-12 [6] and in the assay with PC-12 [7] was Active.

Consider `Cc1cc(O)c2c(c1)O[C@@]1(C)CC[C@H]3O[C@@H]2[C@@H]1C3(C)C`, for which, in the assay on BV-2 [5], the IC50 is above 30 µM. Also, the Activity entry with PC-12 [8] is “Active; Activity Was Comparable To That Of Ngf”; in the assay on PC-12 [9], “Active; Activity Was Comparable To That Of Ngf”; with PC-12 [2] it was “Dose-dependent-effect”; in [3] it was 21.85%. Also, the result in the assay on PC-12 [1] was Active. In addition, the “fold change (FC)” value in assay [4] is on record as around 3.

As for `COC(C)(C)CC(=O)[C@@H]1[C@H]2c3c(O)cc(C)cc3O[C@@]3(C)CCC[C@]1(C)[C@@H]23`, the Activity result is “Active; Activity Was Comparable To That Of Ngf” in the assay with PC-12 [8], “Active; Activity Was Comparable To That Of Ngf” with PC-12 [9] and “Dose-dependent-effect” in the assay with PC-12 [2]. In the assay on PC-12 [1], the result was Active.

For `C=C(C)[C@@H]1CC[C@]2(C)Oc3cc(C)cc(O)c3C[C@H]12`, in the assay with BV-2 [5], the IC50 was above 30 µM. In addition, the Activity result in the assay on PC-12 [8] and with PC-12 [9] was “Active; Activity Was Comparable To That Of Ngf” each time.

`C=C(C)[C@@H](O)CC/C(C)=C/CC[C@@]1(C)C=Cc2c(O)cc(C)cc2O1`: the concentration for half-maximal inhibition (IC50) with BV-2 [5] is 25.2 µM.

In the case of `C=C(C)[C@@H](O)CC[C@@]1(C)[C@@H]2CC[C@]3(C)Oc4cc(C)cc(O)c4[C@H]1[C@H]23`, the Activity entry in the assay on PC-12 [9] is recorded as “Active; Capable Of Rescuing Cell Injury To Greater Extent”.

`C/C(=C\CC/C(C)=C/CC[C@@]1(C)C=Cc2c(O)cc(C)cc2O1)CO`: the IC50 with BV-2 [5] is 15.8 µM. Also, the Activity entry in the assay with BV-2 [10] and in the assay with BV-2 [11] was “Dose-dependent-effect” each time. Further, in the assay with BV-2 [12], the inhibition entry is “Active; Exhibited Mild Inhibition”.

Turning to `CC(C)=CC(=O)[C@@H]1[C@H]2c3c(O)cc(C)cc3O[C@@]3(C)CCC[C@]1(C)[C@@H]23`, the IC50 in the assay on BV-2 [5] was 17.5 µM. In addition, the Activity entry in the assay on BV-2 [10] was “Dose-dependent-effect; Exhibited More Potency Than Quercetin”; in the assay on BV-2 [11], “Dose-dependent-effect; Exhibited More Potency Than Quercetin”; with BV-2 [13] it was “Dose-dependent-effect”; with PC-12 [16], “Dose-dependent-effect; Activity Was Comparable To That Of Ngf”; with PC-12 [9] it was “Active; Activity Was Comparable To That Of Ngf”; with Caenorhabditis elegans [17], “Active; Activity Was Comparable With Quercetin At 50 Um”. The Activity result with Caenorhabditis elegans [18] is “>=18.7%”. Moreover, the inhibition entry in the assay on BV-2 [14] is “Active; Activity Was Comparable To That Of Quercetin”; in the assay on BV-2 [15], “Active; Exhibited Mild Inhibition”.

Regarding `CC(C)=CC[C@H](O)/C(C)=C/CC[C@@]1(C)C=Cc2c(O)cc(C)cc2O1`, the half-inhibitory concentration (IC50) with BV-2 [5] was 19.9 µM. Further, the outcome with PC-12 [1] was Active. For the same molecule, the Activity entry in the assay on PC-12 [2] was “Dose-dependent-effect”.

For `C/C(=C\Cc1c(O)cc(C)cc1O)CC/C=C(\C)CC(=O)CC(C)C`, the concentration for half-maximal inhibition (IC50) in the assay with BV-2 [5] turned out to be 20 µM.

Regarding `C/C(=C/CC/C(C)=C/CC[C@@]1(C)C=Cc2c(O)cc(C)cc2O1)CO`, the IC50 with BV-2 [5] came to 11.3 µM.

`C=C(C)[C@H](O)CC[C@@]1(C)[C@@H]2CC[C@]3(C)Oc4cc(C)cc(O)c4[C@H]1[C@H]23`: the IC50 with BV-2 [5] was found to be 22.1 µM. Also, the Activity entry with PC-12 [8] and in the assay with PC-12 [9] was “Active; Activity Was Comparable To That Of Ngf” throughout.

As for `Cc1cc(O)c2c(c1)O[C@@]1(C)CC[C@@H](C(C)(C)O)[C@@H]2C1`, the Activity result with PC-12 [9] is given as “Active; Capable Of Rescuing Cell Injury To Greater Extent”.

For `Cc1cc(O)c2c(c1)O[C@@]1(C)CCC[C@@]3(C)[C@H](C(=O)CC(C)C)[C@@H]2[C@H]31`, the concentration for half-maximal inhibition (IC50) with BV-2 [5] turned out to be 28.2 µM. Further, the result in the assay on PC-12 [8] and in the assay on PC-12 [1] was Active. Also, the Activity result in the assay on PC-12 [9] is “Active; Capable Of Rescuing Cell Injury To Greater Extent”; with PC-12 [2] it was “Dose-dependent-effect”.

Regarding `O=c1c(O)c(-c2ccc(O)c(O)c2)oc2cc(O)cc(O)c12` [QUERCETIN], the IC50 in the assay with BV-2 [5] was determined as 11.8 µM.

For the molecule `CC(C)=CC(=O)C[C@]1(C)Oc2cc(C)cc3c2[C@H]2C[C@](C)(CC[C@H]21)O3`, in the assay on BV-2 [5], the IC50 amounted to 15.7 µM. For the same molecule, the outcome in the assay on BV-2 [10] and with BV-2 [11] was Active. Besides, the inhibition entry in the assay with BV-2 [14] was “Active; Activity Was Comparable To That Of Quercetin”; with BV-2 [19], “Dose-dependent-effect”. The Activity result was “Active; Activity Was Comparable To That Of Ngf” in the assay on PC-12 [8]; “Active; Activity Was Comparable To That Of Ngf” with PC-12 [9]; “Active; Exhibited More Activity Than That Of Positive Group” in the assay on PC-12 [6]; “Active; Exhibited More Activity Than That Of Positive Group” in the assay with PC-12 [7]; around 20% in the assay on Caenorhabditis elegans [20]; “>=15.2%” in the assay with Caenorhabditis elegans [18].

Take `C/C(=C\CC[C@@]1(C)C=Cc2c(O)cc(C)cc2O1)CC(=O)CC(C)C`: the concentration for half-maximal inhibition (IC50) in the assay with BV-2 [5] turned out to be 21.3 µM.

(Values after ChEMBL document CHEMBL6078721, “Structurally diverse chromane meroterpenoids from Rhododendron capitatum with multifunctional neuroprotective effects” (Eur J Med Chem, 2025).)
